Laboratory results published in patent EP4463162B1, “CONNEXIN 43 FOR USE IN TREATING BRCA1/2-MUTATED CANCER” (Fundación Profesor Novoa Santos, priority 2022, dated 2023).

What was measured:
Type in all cases: cell-based, human
HCC1937 cells = assay: Proliferation assay (Cell Counting Kit-8); conditions: Cx43_HCC1937 compared to EV_HCC1937; 100 and 200 µM olaparib, over 96 h, all concentrations and time points
Description: (§1) Proliferation of tumour cell lines was evaluated using the Cell Counting Kit-8 (Dojindo Molecular Technologies). This kit comprises WST-8, a highly water-soluble tetrazolium salt, which upon reduction by cellular dehydrogenases of viable cells, gives rise to a yellow formazan dye that is solube in cell culture media and can be quantitated. Briefly, similar number of cells (1 000-5 000) were plated in 96-well plates (Corning) and left to grow for the desired time period under different treatment conditions. Then, medium was renewed (100 µL volume/well) and 10 µL of CCK-8 reagent were added to each well. Plates were incubated in the dark for 3 h at 37 °C, and absorbance was measured at 450 nm in a NanoQuant Infinite 200 plate reader (Tecan).
Cell viability was either relativized to untreated controls for each cell line at each time point, in order to account for the already reduced proliferation of Cx43-restituted cells (top graph) or reported as raw absorbance value (bottom graph).
(§2) To further characterize its involvement in BRCA1/2 mutated cancer, Cx43 was restituted by plasmid transfection in BRCA1 mutated TNBC and ovarian carcinoma cell lines, HCC1937 and SNU251, respectively. […]

RAD51 and 53BP1 = RAD51 and 53BP1 immunofluorescence; conditions: olaparib 100 µM, 96 h
Description: (§3) 2 000-10 000 cells were plated on glass coverslips (Thermo Fisher Scientific) previously coated with poly-D-lysine hydrobromide (Sigma-Aldrich) and cultured until they were approximately 80 % confluent. They were washed with PBS, fixed with 4 % paraformaldehyde (PFA, Sigma-Aldrich) in PBS for 15 min at room temperature and rinsed twice with PBS. Next, cells were incubated with 0.1 M glycine (Sigma-Aldrich) in distilled water to quench PFA for 10 min at room temperature, and then their membranes were permeabilized with 0.2 % Triton X-100 (Sigma-Aldrich) in PBS for 10 min at room temperature. After two 5 min PBS washes, potential nonspecific antibody binding sites were blocked with 1 % bovine serum albumin (BSA; Sigma-Aldrich) diluted in PBST (PBS+0.1 % Tween 20; Sigma-Aldrich) for 30 min at room temperature. Cells were incubated overnight at 4 °C in the dark with primary antibody (see references in Table 3) diluted in 1 % BSA in PBST. The next day, cells were rinsed three times in PBS for 10 min each, and then incubated 1 h at room temperature in the dark with secondary antibody (see references in Table 3) diluted in 1 % BSA in PBST. After that, they were washed three times with PBS for 5 min each, and their nuclei were stained with 1 µg/mL Hoechst (Invitrogen, Thermo Fisher Scientific) diluted in PBS for 10 min. […]

γH2AX (p-Ser139) = assay: Western blot and immunofluorescence against γH2AX; conditions: Cx43_HCC1937, 50/100 µM olaparib, 96 h, vs basal condition and same treatments in EV_HCC1937
Description: as §3, with “PBST.” for “PBST. The next day, cells were rinsed three times in PBS for 10 min each, and then incubated 1 h at room temperature in the dark with secondary antibody (see references in Table 3) diluted in 1 % BSA in PBST. After that, they were washed three times with PBS for 5 min each, and their nuclei were stained with 1 µg/mL Hoechst (Invitrogen, Thermo Fisher Scientific) diluted in PBS for 10 min.”
Protein extracts were mixed with loading buffer, which consisted of 10 % (v/v) β-mercaptoethanol (Sigma-Aldrich), 10 % SDS, 50 % (v/v) glycerol, 200 mM Tris-HCl pH 6.8 and 0.1 % bromophenol blue (Sigma-Aldrich). […] Ponceau staining and western blot images were analysed and their band intensities quantitated with Image J software.

SNU251 cells = assay: Proliferation assay (Cell Counting Kit-8); conditions: Cx43-restored SNU251 vs EV, 100 and 200 µM olaparib, 96 h, beginning at 48 h
Description: as §1
In order to complement previous results with another clinically relevant PARPi-treated cancer, assays were repeated with BRCA1 mutated ovarian cancer cell line SNU251, efficiently nucleofected with EV or Cx43-restituting plasmids (Figure 8). SNU251 wild type (EV) cells had no native Cx43 expression, as assayed by western blot ( Figure 8.A).
as §2

Structure (SMILES): O=C(c1cc(Cc2n[nH]c(=O)c3ccccc23)ccc1F)N1CCN(C(=O)C2CC2)CC1 [Olaparib, olaparib]
- cell viability (proliferation assay) (HCC1937 cells): robust and significant decrease in cell viability
- 53BP1 foci (RAD51 and 53BP1; EV and Cx43_HCC1937): seemed to rise upon olaparib treatment in both cell lines alike
- RAD51 foci (RAD51 and 53BP1; EV vs Cx43_HCC1937): increased just in EV_HCC1937 cells
- γH2AX (p-Ser139) (γH2AX (p-Ser139)): significant γH2AX increase
- response to olaparib (proliferation) (SNU251 cells): significantly better response to olaparib than EV cells
